Data as given in patent US6420570B1, “Psoralen compounds” (priority 1993, dated 2002).
Structures can show the parent of a compound that is named as a salt.

System: R17
Experiment: R17 bacteriophage inactivation screen, varying compound concentration
Type: cell-based
Conditions: starting titer approx. 7.1 logs
Method: The assay used to predict pathogen inactivation efficiency and to determine nucleic acid binding of the photoreactive binding compounds of the present invention was that in which a bacteriophage, R17, in solution with the desired substrate was irradiated. The ability of the phage to subsequently infect bacteria and inhibit their growth was measured. The bacteriophage was selected for its relatively accessible nucleic acid such that the culture growth inhibition would accurately reflect nucleic acid damage by the test compounds. The bacteriophage assay for nucleic acid binding to test compounds offers a safe and inexpensive procedure to identify compounds likely to display efficient pathogen inactivation. […] An aliquot (0.5 mL) was transferred to a 1.5 mL, snap-top polyethylene tube. An aliquot (0.004-0.040 mL) of the test compound stock solution prepared in water, ethanol or dimethylsulfoxide at 0.80-8.0 mM was added to the tube. Compounds were tested at concentrations between 4 μM and 320 μM. (AMT is commercially available from HRI, Inc., Concord, Calif.; 8-MOP is commercially available from Sigma, St. Louis, Mo.). The tubes were placed in a light device as described in EXAMPLE 1 and irradiated for between 1 and 10 minutes. […] To make the dilutions, a 0.100 mL aliquot of the irradiated solution of phage and test compound was added to the first dilution tube of 0.4 mL of media then 0.020 mL of this solution was added to the second tube of 0.5 mL medium (1:25). The second solution was then diluted serially (1:25) into the remaining tubes. […] After the top agar hardened, the plates were incubated at 37° C. overnight. The plaque forming units were then counted the following morning and the titer of the phage remaining after phototreatment was calculated based on the dilution factors. The following controls were run: the “phage only” in which phage was not treated with test compound and not irradiated (listed as “starting titer” in the tables below); the “UV only” in which the phage was irradiated in the absence of test compound; and the “dark” control in which the phage/test compound solution was not irradiated before it was diluted and plated.

SMILES: Cc1oc2c(C)c3oc(=O)cc(C)c3cc2c1CNCCCCN [Compound 6, 4′-(6-Aminohexyl-2-aza)-4,5′,8-trimethylpsoralen Dihydrochloride]
- R17 log kill 16 uM (Table 6, 1 minute irradiation = 1.2 J/cm^2): >6.1 log
- R17 log kill 32 uM (Table 6, 32 uM, 1 minute irradiation = 1.2 J/cm^2): >6.1 log
- R17 log kill 64 uM (Table 6, 64 uM, 1 minute irradiation = 1.2 J/cm^2): >6.1 log
- R17 log kill 8 uM (Table 7, 8 uM, 1 minute irradiation): >6 log
- R17 log kill 16 uM (Table 7, 1 minute irradiation): >6 log
